This is an account of results in patent publication US6900200B2, “Tricyclic hydroxy carboxamides and derivatives thereof tocolytic oxytocin receptor antagonists” (Wyeth, priority 2001, dated 2005).

The target in this assay is T1, human vasopressin V2 receptor subtype (Homo sapiens, UniProt P30518).
T1 construct: host or cells: CHO cells, pZeoSV vector
Briefly: Vasopressin binding in CHO cell membranes expressing human vasopressin V2 subtype receptors ([3H]arginine vasopressin radioligand binding). To be noted: for IC50: value printed in parentheses; for inhibition at 0.1 µM: @ 100 nM. The text has this: Vasopressin Binding in Chinese Hamster Ovary Cell Membranes Expressing Human Vasopressin V2 Subtype Receptors
Chinese Hamster Ovary (CHO) cells stably transfected with the human V2 subtype receptors were obtained from M. Thibonnier, Case Western Reserve University School of Medicine, Cleveland, Ohio.
A. Passaging and Amplification of Cells
CHO cells transfected with the human vasopressin V2 subtype receptors obtained from M. Thibonnier (pZeoSV vector) are allowed to grow to confluency (approx. >90%) in T-150 flasks under sterile conditions, in a cell culture medium ofF-12 Nutrient Mixture (HAM) with L-glutamine (Gibco Cat. #11765-054) containing 15 mM HEPES (Gibco Cat. #15630-080), 1% antibiotic/antimycotic (add 5 mL 100×, Gibco Cat. #15240-062 per 500 mL F-12), 250 μg/mL Zeocin (add 1.25 mL of 100 mg/mL Invitrogen R-250-01 per 500 mL F-1 2) and 10% Fetal Bovine Serum (Qualified, heat inactivated, Gibco Cat. #16140-063). The medium is removed by aspiration and the cells washed with 10 mL of Hank's Balanced Salt solution (Gibco Cat. #14175-095). The salt solution is removed by aspiration and the cells trypsinized with 5 mL of trypsin-EDTA (0.05% trypsin, 0.53 mM EDTA-4Na, Gibco Cat. #25300-070) for 1 min. The trypsin is removed by aspiration and the cells dislodged by tapping. Cell Culture medium (e.g. 30 mL for 1:30 split) is immediately added and mixed well to inactivate trypsin. 1 mL of detached cells is added to new culture flasks containing fresh Cell Culture medium (e.g. into 25 mL per T-150 flask), and mixed gently. The cells are incubated at 37° C. in 5% CO2. The medium is changed at 3 to 4 day interval (or as appropriate). The cells grow to confluency (approx. >75%-95%) within 7-8 days. All steps are done under sterile conditions.
The cells are washed twice gently with Hank's Balanced Salt solution (e.g. use 10 mL per T-150 flask). The excess solution is removed and the cells bathed for 15-30 min. in an enzyme-free Cell Dissociation Buffer (e.g. use 8 mL Hank's Based, Gibco Cat. # 13150-016 per T-150 flask) until cells are loosened. The contents are transferred to centrifuge tubes (50 mL) kept in ice bath. All subsequent steps are done at 4° C. The tubes are centrifuged at 300×g for 15 min (1380 rpm on SORVAL, Model RT6000D, using the rotor for 50 mL tubes). The supernatant is discarded and the cells suspended in homogenizing buffer (10 mM Tris-HCl containing 0.25 M sucrose and 1 mM EDTA, pH 7.4) ensuring that the volume of the buffer is about ten times the volume of the cell pellet. The cells are pooled into a centrifuge tube (50 mL) and homogenized with Polytron at setting 6 for 10 sec. The homogenate is transferred into a Potter-Elvjehm homogenizer and homogenized with 3 strokes. The homogenate is centrifuged at 1500×g for 60 min at 4° C. (3100 rpm using SORVAL, model RT6000D, using the rotor for 50 mL tubes). The pellet is discarded. The supernatant is centrifuged at 100,000×g for 60 min. at 4° C. (Beckman L8-80M ultracentrifuge; spin at 37,500 rpm with rotor type 70 Ti for 50 mL tubes; 38,000 rpm with type 80Ti for 15 mL tubes; or 35,800 rpm with rotor type 45Ti). The supernantant is discarded and the pellet suspended in 3 to 4 mL of Tris buffer (50 mM TRIS—HCl, pH 7.4). The protein content is estimated by the Bradford or Lowry method. The volume of the membrane suspension is adjusted with the membrane buffer (50 mM Tris-HCl containing 0.1% BSA and 0.1 mM PMSF) to give 3.0 mg/mL (or as appropriate) of protein. The membranes are aliquoted and stored at −70. ° C.
C. Radioligand Binding Assay
In wells of a 96-well format microtiter plate, is added 90, 110 or 130 μL (to make up a final volume of 200 μL) of assay buffer containing 50 mM of Tris-HCl (pH 7.4), […], 1 mg % aprotinin, 1 mg % leupeptin, 2 mg % 1,10-phenanthroline, 10 mg % trypsin inhibitor, and 0.1 mM PMSF. The inhibitors are added on the day of the experiment. […]

T1 sequence (P30518 whole entry): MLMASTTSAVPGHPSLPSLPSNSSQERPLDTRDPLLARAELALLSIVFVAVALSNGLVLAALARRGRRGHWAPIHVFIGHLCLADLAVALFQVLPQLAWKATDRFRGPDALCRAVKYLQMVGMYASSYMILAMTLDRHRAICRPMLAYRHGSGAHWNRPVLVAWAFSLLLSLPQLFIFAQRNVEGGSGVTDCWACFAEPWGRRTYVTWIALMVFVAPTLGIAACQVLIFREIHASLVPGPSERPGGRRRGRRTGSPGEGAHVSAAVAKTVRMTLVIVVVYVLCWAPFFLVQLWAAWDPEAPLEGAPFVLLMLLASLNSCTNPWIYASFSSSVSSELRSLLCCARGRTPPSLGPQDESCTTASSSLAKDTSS

As to `COC[C@H](O)CN1CCN(C(=O)c2ccc3n2Cc2ccccc2N(C(=O)c2ccc(-c4ccccc4C(F)(F)F)c(C)c2)C3)CC1` [Example 8, (2R)-1-Methoxy-3-{4-[(10-{[2-methyl-2′-trifluoromethyl-[1,1′-biphenyl]-4-yl]carbonyl}-10,11-dihydro-5H-pyrrolo[2,1-c][1,4]benzodiazepin-3-yl)carbonyl]piperazin-1-yl}propan-2-ol], the IC50 (usually the concentration at which inhibition is half-maximal) amounted to 0.769 µM.

In the case of `Cc1ccccc1-c1ccc(C(=O)N2Cc3ccc(C(=O)N4CCN(CCO)CC4)n3Cc3ccccc32)cc1C` [Example 46, {10-[(2,2′-Dimethyl[1,1′-biphenyl]-4-yl)carbonyl]-10,11-dihydro-5H-pyrrolo[2,1-c][1,4]benzodiazepin-3-yl}[4-(2-hydroxyethyl)-1-piperazinyl]methanone], 0.1 µM produced 14% inhibition.

As to `Cc1cc(C(=O)N2Cc3ccc(C(=O)N(C)CC4COC(=O)O4)n3Cc3ccccc32)ccc1-c1ccccc1C(F)(F)F` (centres unmarked) [Example 11, 10-[(2-Methyl-2′-trifluoromethyl-[1,1′-biphenyl]-4-yl)carbonyl]-10,11-dihydro-5H-pyrrolo[2,1-c][1,4]benzodiazepine-3-carboxylic acid methyl-[(2-oxo-[1,3]dioxolan-4-yl)methyl]-amide], the IC50 is 0.356 µM.

As for `Cc1cc(C(=O)N2Cc3ccc(C(=O)N4CCN(CCO)CC4)n3Cc3ccccc32)ccc1-c1ccccc1C(F)(F)F` [Example 48, [4-(2-Hydroxyethyl)-1-piperazinyl](10-{[2-methyl-2′-(trifluoromethyl)[1,1′-biphenyl]-4-yl)carbonyl}-10,11-dihydro-5H-pyrrolo[2,1-c][1,4]benzodiazepin-3-yl)methanone], at 0.1 µM the inhibition was 11%.

For `Cc1ccccc1-c1ccc(C(=O)N2Cc3ccc(C(=O)N4CCN(CCO)CC4)n3Cc3ccccc32)cc1` [Example 45, [4-(2-Hydroxyethyl)-1-piperazinyl]{10-[(2′-methyl[1,1′-biphenyl]-4-yl)carbonyl]-10,11-dihydro-5H-pyrrolo[2,1-c][1,4]benzodiazepin-3-yl}methanone], at 0.1 µM the inhibition was 9%.

In the case of `COc1ccccc1-c1ccc(C(=O)N2Cc3ccc(C(=O)N4CCN(CCO)CC4)n3Cc3ccccc32)cc1` [Example 47, [4-(2-Hydroxyethyl)-1-piperazinyl]{10-[(2′-methoxy[1,1′-biphenyl]-4-yl)carbonyl]-10,11-dihydro-5H-pyrrolo[2,1-c][1,4]benzodiazepin-3-yl}methanone], the inhibition (in general, the percentage by which the read-out fell short of the control) at 0.1 µM amounted to 16%.

The compound `COc1cc(C(=O)N2Cc3ccc(C(=O)N4CCN(CCO)CC4)n3Cc3ccccc32)ccc1-c1ccccc1C` [Example 42, [4-(2-Hydroxyethyl)-1-piperazinyl]{10-[(2-methoxy-2′-methyl[1,1′-biphenyl]-4yl)carbonyl]-10,11-dihydro-5H-pyrrolo[2,1-c][1,4]benzodiazepin-3-yl}methanone] had an inhibition at 0.1 µM of 27%.

In the case of `Cc1ccc(-c2ccc(C(=O)N3Cc4ccc(C(=O)N(C)CC(O)CO)n4Cc4ccccc43)cc2)c2ccccc12` (centres unmarked) [Example 26, 10-{[4-(4-Methyl-naphthalen-1-yl)phenyl]carbonyl}-10,11-dihydro-5H-pyrrolo[2,1-c][1,4]benzodiazepine-3-carboxylic acid (2,3-dihydroxy-propyl)-N-methylamide], the IC50 stood at 0.0113 µM.

Take `Cc1cc(C(=O)N2Cc3ccc(C(=O)N4CCN(C[C@H](O)CO)CC4)n3Cc3ccccc32)ccc1-c1ccccc1C(F)(F)F` [Example 5, (2S)-3-{4-[(10-{[2-Methyl-2′-trifluoromethyl-[1,1′-biphenyl]-4-yl]carbonyl}-10,11-dihydro-5H-pyrrolo[2,1-c][1,4]benzodiazepin-3-yl)carbonyl]piperazin-1-yl}propane-1,2-diol]: the 50% inhibitory concentration (IC50) was 1.19 µM.

For the compound `COc1cc(-c2ccccc2C(F)(F)F)c(Cl)cc1C(=O)N1Cc2ccc(C(=O)N(C)C[C@H](O)[C@@H](O)[C@H](O)[C@H](O)CO)n2Cc2ccccc21` [Example 20, 10-{[6-Chloro-3-methoxy-2′-trifluoromethyl-[1,1′-biphenyl]-4-yl]carbonyl}-N-methyl-N-[(2S,3R,4R,5R)-2,3,4,5,6-pentahydroxyhexyl]-10,11-dihydro-5H-pyrrolo[2,1-c][1,4]benzodiazepine-3-carboxamide], the 50% inhibitory concentration (IC50) worked out at 0.227 µM.

As for `Cc1cc(C(=O)N2Cc3ccc(C(=O)N(C)C[C@H](O)[C@@H](O)[C@H](O)[C@H](O)CO)n3Cc3ccccc32)ccc1-c1ccccc1C(F)(F)F` [Example 4, 10-[(2-Methyl-2′-trifluoromethyl-[1,1′-biphenyl]-4-yl)carbonyl]-10,11-dihydro-5H-pyrrolo[2,1-c][1,4]benzodiazepine-3-carboxylic acid methyl-((2S,3R,4R,5R)-2,3,4,5,6-pentahydroxy-hexyl)-amide], the IC50 stood at 0.617 µM.

On to `COc1ccccc1-c1ccc(C(=O)N2Cc3ccc(C(=O)N4CCN(CCO)CC4)n3Cc3ccccc32)cc1C` [Example 40, [4-(2-Hydroxyethyl)-1-piperazinyl]{10-[(2′-methoxy-2-methyl[1,1′-biphenyl]-4yl)carbonyl]-10,11-dihydro-5H-pyrrolo[2,1-c][1,4]benzodiazepin-3-yl}methanone], for which the inhibition at 0.1 µM amounted to 25%.

`COc1cccc(-c2ccc(C(=O)N3Cc4ccc(C(=O)N5CCN(CCO)CC5)n4Cc4ccccc43)cc2C)c1` [Example 44, [4-(2-Hydroxyethyl)-1-piperazinyl]{10-[(3′-methoxy-2-methyl[1,1′-biphenyl]-4yl)carbonyl]-10,11-dihydro-5H-pyrrolo[2,1-c][1,4]benzodiazepin-3-yl}methanone]: the inhibition at 0.1 µM was determined as 13%.

Take `COc1cc(C(=O)N2Cc3ccc(C(=O)N(C)C[C@@H](O)[C@H](O)[C@H](O)[C@@H](O)CO)n3Cc3ccccc32)ccc1-c1ccccc1C(F)(F)F` (stereo in doubt) [Example 23, 10-{[2-Methoxy-2′-trifluoromethyl-[1,1′-biphenyl]-4-yl]carbonyl}-N-methyl-N-[(2R,3S,4R,5S)-2,3,4,5,6-pentahydroxyhexyl]-10,11-dihydro-5H-pyrrolo[2,1-c][1,4]benzodiazepine-3-carboxamide]: the IC50 was 0.451 µM.

For the compound `COCC(CN(C)C(=O)c1ccc2n1Cc1ccccc1N(C(=O)c1ccc(-c3ccccc3C(F)(F)F)c(C)c1)C2)OC` (centres unmarked) [Example 10, N-(2,3-Dimethoxypropyl)-N-methyl-10-{[2-methyl-2′-trifluoromethyl-[1,1′-biphenyl]-4-yl]carbonyl}-10,11-dihydro-5H-pyrrolo[2,1-c][1,4]benzodiazepine-3-carboxamide], the half-maximal inhibitory concentration (IC50) is 2.22 µM.

The compound `COc1ccccc1-c1ccc(C(=O)N2Cc3ccc(C(=O)N(C)C[C@H](O)CO)n3Cc3ccccc32)cc1C` (single isomer, unassigned) [Example 15] had an inhibition at 0.1 µM of 74%.

Compound `Cc1cc(C(=O)N2Cc3ccc(C(=O)NC(CO)(CO)CO)n3Cc3ccccc32)ccc1-c1ccccc1C(F)(F)F` [Example 3, 10-[(2-Methyl-2′-trifluoromethyl-[1,1′-biphenyl]-4-yl)carbonyl]-10,11-dihydro-5H-pyrrolo[2,1-c][1,4]benzodiazepine-3-carboxylic acid (2-hydroxy-1,1-bis-hydroxymethyl-ethyl)-amide] yielded an inhibition at 0.1 µM of 13%.
